Results reported in the CheMixHub viscosity set.

Assay: xn = mol fraction of the nth substance listed

CC(O)CO (stereo not drawn) + CN1CCCC1=O
101.33 kPa
Conditions | viscosity [mPa·s]
298.15 K, x2 = 0.03556 | 37.57
298.15 K, x2 = 0.09927 | 27.77
298.15 K, x2 = 0.195 | 18.05
298.15 K, x2 = 0.3013 | 11.78
298.15 K, x2 = 0.4032 | 8.207
298.15 K, x2 = 0.5025 | 5.965
298.15 K, x2 = 0.5936 | 4.558
298.15 K, x2 = 0.6967 | 3.452
298.15 K, x2 = 0.7994 | 2.682
298.15 K, x2 = 0.9144 | 2.042
298.15 K, x2 = 0.942 | 1.918
308.15 K, x2 = 0.05805 | 19.68
308.15 K, x2 = 0.1023 | 16.23
308.15 K, x2 = 0.1977 | 11.09
308.15 K, x2 = 0.2949 | 8.059
308.15 K, x2 = 0.407 | 5.667
308.15 K, x2 = 0.5051 | 4.3
308.15 K, x2 = 0.5903 | 3.441
308.15 K, x2 = 0.7066 | 2.66
308.15 K, x2 = 0.7992 | 2.172
308.15 K, x2 = 0.8842 | 1.81
308.15 K, x2 = 0.9388 | 1.623
318.15 K, x2 = 0.05313 | 12.45
318.15 K, x2 = 0.1009 | 10.51
318.15 K, x2 = 0.1905 | 7.664
318.15 K, x2 = 0.2992 | 5.559
318.15 K, x2 = 0.4025 | 4.21
318.15 K, x2 = 0.5017 | 3.319
318.15 K, x2 = 0.5999 | 2.697
318.15 K, x2 = 0.6946 | 2.204
318.15 K, x2 = 0.7967 | 1.805
318.15 K, x2 = 0.8916 | 1.507
318.15 K, x2 = 0.9393 | 1.378

ClC=C(Cl)Cl + CCCCCCCO
303.15 K, 101 kPa
Conditions | viscosity [mPa·s]
x2 = 0.1161 | 0.734
x2 = 0.2045 | 0.863
x2 = 0.3792 | 1.166
x2 = 0.4884 | 1.459
x2 = 0.5714 | 1.767
x2 = 0.6298 | 2.03
x2 = 0.737 | 2.643
x2 = 0.8161 | 3.197
x2 = 0.9242 | 4.119

O=C1CCCC1 + CCCCO
303.15 K, 101 kPa
Conditions | viscosity [mPa·s]
x1 = 0.101 | 1.725
x1 = 0.2614 | 1.339
x1 = 0.4183 | 1.143
x1 = 0.5813 | 1.026
x1 = 0.7417 | 0.974
x1 = 0.899 | 0.959
